# Measured values published in patent publication US9422296B2, “Fast-dissociating dopamine 2 receptor antagonists” (Janssen Pharmaceutica NV, priority 2007, dated 2016).
# Structures can show the parent of a compound that is named as a salt. Where two headings read alike, the source gives them in different places.
# Experiments:
# [1] = target: T1, human Dopamine D3 receptor (Homo sapiens, UniProt P35462); experiment: In vitro binding affinity for human D3 receptor ([125I]iodosulpride)
# T1 construct: expressed in transfected cells; host or cells: CHO cells (membranes)
# Procedure: In Vitro Binding Affinity for Human D3 Receptor
# Frozen membranes of human Dopamine D3 receptor-transfected CHO cells were thawed, briefly homogenized using an Ultra-Turrax T25 homogeniser and diluted in 50 mM Tris-HCl assay buffer containing 120 mM NaCl, 2 mM CaCl2, 1 mM MgCl2, 5 mM KCl and 0.1% BSA (adjusted to pH 7.4 with HCl) to an appropriate protein concentration optimized for specific and non-specific binding. Radioligand [^125I]Iodosulpride (Amersham, specific activity ˜2000 Ci/mmol) was diluted in assay buffer at a concentration of 2 nM. Prepared radioligand (20 μl), along with 40 μl of either the 10% DMSO control, Risperidone (10^−6M final concentration), or compound of interest, was then incubated with 70 μl of the prepared membrane solution and 70 μl of WGA coated PVT beads (0.25 mg/well final concentration). After shaking for 24 hours at RT plates were counted in a Topcount™ scintillation counter. Percentage specific binding and competition binding curves were calculated using S-Plus software (Insightful).
# [2] = target: T2, human Serotonin 5HT6 receptor (Homo sapiens, UniProt P50406); experiment: In vitro binding affinity for human 5HT6 receptor ([3H]lysergic acid diethylamide); conditions: [3H]LSD, membranes of human 5HT6 receptor-transfected HEK cells; for IC50: read-out: 5-HT6 binding pIC50 (converted)
# T2 construct: expressed in transfected cells; host or cells: HEK cells (membranes)
# Procedure: In Vitro Binding Affinity for Human 5HT6 Receptor
# Frozen membranes of human Serotonin 5HT6 receptor-transfected HEK cells were thawed, briefly homogenized using an Ultra-Turrax T25 homogeniser and diluted in 50 mM Tris-HCl assay buffer containing 10 mM MgCl2, 1 mM EDTA and 10 μM Pargyline (adjusted to pH 7.4 with HCl) to an appropriate protein concentration optimized for specific and non-specific binding. Radioligand [^3H]Lysergic acid diethylamide (Perkin Elmer, specific activity ˜80 Ci/mmol) was diluted in assay buffer at a concentration of 20 nM. Radioligand (20 μl), along with 40 μl of either the 10% DMSO control, Methiothepine (10^−5 M final concentration), or compound of interest, was then incubated with 70 μl of the prepared membrane solution and 70 μl of WGA coated PVT beads (0.25 mg/well final concentration). After shaking for 24 hours at RT plates were counted in a Topcount™ scintillation counter. Percentage specific binding and competition binding curves were calculated using S-Plus software (Insightful).
# [3] = target: T3, human Dopamine D2L receptor (Homo sapiens, UniProt P14416); experiment: In vitro binding affinity for human D2L receptor ([3H]spiperone); conditions: membranes of human D2L receptor-transfected CHO cells, read-out: D2L binding pIC50 (converted)
# T3 construct: expressed in transfected cells; host or cells: CHO cells (membranes)
# Source text: In order to find antipsychotic compounds active against positive and negative symptoms and cognitive impairment, and having an improved safety profile (low EPS incidence and no metabolic disorders), we have screened for compounds selectively interacting with the dopamine D2 receptor and dissociating fast from this receptor, and further having affinity for the dopamine D3 receptor as well as the serotonin 5-HT-6 receptor. Compounds were first screened for their D2 affinity in a binding assay using [^3H]spiperone and human D2L receptor cell membranes.
# Pharmacology In Vitro Binding Affinity for Human D2L Receptor
# Frozen membranes of human Dopamine D2L receptor-transfected CHO cells were thawed, briefly homogenised using an Ultra-Turrax T25 homogeniser and diluted in Tris-HCl assay buffer containing NaCl, CaCl2, MgCl2, KCl (50, 120, 2, 1, and 5 mM respectively, adjusted to pH 7.7 with HCl) to an appropriate protein concentration optimised for specific and non-specific binding. Radioligand [^3H]Spiperone (NEN, specific activity ˜70 Ci/mmol) was diluted in assay buffer at a concentration of 2 nmol/L. Prepared radioligand (50 μl), along with 50 μl of either the 10% DMSO control, Butaclamol (10^−6 mol/1 final concentration), or compound of interest, was then incubated (30 min, 37° C.) with 400 μl of the prepared membrane solution. Membrane-bound activity was filtered through a Packard Filtermate harvester onto GF/B Unifilterplates and washed with ice-cold Tris-HCl buffer (50 mM; pH 7.7; 6×0.5 ml). Filters were allowed to dry before adding scintillation fluid and counting in a Topcount scintillation counter. Percentage specific bound and competition binding curves were calculated using S-Plus software (Insightful).
# [4] = [125I]iodosulpride, membranes of human D3 receptor-transfected CHO cells, read-out: D3 binding pIC50 (converted)
# T1 sequence (P35462 whole entry): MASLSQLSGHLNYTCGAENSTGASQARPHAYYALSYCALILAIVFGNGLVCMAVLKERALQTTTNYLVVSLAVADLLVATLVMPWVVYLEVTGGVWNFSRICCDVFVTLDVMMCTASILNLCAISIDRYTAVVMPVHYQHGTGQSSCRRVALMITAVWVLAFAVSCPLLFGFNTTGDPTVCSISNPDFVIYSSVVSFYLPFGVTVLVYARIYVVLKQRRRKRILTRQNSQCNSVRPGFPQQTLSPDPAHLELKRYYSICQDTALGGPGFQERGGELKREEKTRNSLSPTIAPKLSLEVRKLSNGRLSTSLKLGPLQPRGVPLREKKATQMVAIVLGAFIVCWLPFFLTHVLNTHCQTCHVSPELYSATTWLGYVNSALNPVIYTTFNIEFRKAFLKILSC
# T3 sequence (P14416 whole entry): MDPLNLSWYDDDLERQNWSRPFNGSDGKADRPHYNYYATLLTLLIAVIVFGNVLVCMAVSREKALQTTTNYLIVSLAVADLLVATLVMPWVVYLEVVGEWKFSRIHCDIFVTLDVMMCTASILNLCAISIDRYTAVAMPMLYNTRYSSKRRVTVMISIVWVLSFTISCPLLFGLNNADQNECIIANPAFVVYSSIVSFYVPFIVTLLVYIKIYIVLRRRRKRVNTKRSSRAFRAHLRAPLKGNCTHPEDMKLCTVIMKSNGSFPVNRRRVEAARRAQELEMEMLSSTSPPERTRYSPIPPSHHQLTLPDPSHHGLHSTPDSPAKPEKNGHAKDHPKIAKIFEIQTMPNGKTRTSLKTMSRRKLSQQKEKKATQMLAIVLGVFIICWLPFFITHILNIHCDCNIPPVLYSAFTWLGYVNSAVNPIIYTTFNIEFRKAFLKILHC
# T2 sequence (P50406 whole entry): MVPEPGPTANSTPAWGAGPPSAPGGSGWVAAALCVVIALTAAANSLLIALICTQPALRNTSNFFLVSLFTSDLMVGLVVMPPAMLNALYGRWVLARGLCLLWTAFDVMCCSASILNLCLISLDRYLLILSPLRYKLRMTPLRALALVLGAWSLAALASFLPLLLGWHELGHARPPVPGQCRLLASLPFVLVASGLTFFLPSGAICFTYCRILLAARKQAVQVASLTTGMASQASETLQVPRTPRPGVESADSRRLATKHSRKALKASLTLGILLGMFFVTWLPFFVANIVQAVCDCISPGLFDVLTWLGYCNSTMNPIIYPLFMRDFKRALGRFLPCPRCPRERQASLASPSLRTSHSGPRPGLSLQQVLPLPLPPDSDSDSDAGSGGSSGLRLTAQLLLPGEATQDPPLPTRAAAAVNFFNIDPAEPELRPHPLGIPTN
5-HT6 binding pIC50 [2],Structure (SMILES),melting point [°C],"IC50 [1, 4] [µM]",IC50 [2] [µM],IC50 [3] [µM],IC50 [1] [µM]
–,"CCN1CCN(c2cc(-c3ccccc3)c(C(F)(F)F)nn2)CC1 (as salt: hydrochloric acid salt) [Example E2, 6-(4-Ethylpiperazin-1-yl)-4-phenyl-3-trifluoromethyl-pyridazine]",281.9,–,–,–,–
–,"C[C@@H]1CN(c2cc(-c3ccccc3)c(C(F)(F)F)nn2)C[C@H](C)N1 (as salt: hydrochloric acid salt) [Example E4, cis-6-(3,5-Dimethylpiperazin-1-yl)-4-phenyl-3-trifluoromethyl-pyridazine]",285.4,–,–,–,–
–,FC(F)(F)c1nnc(N2CCNCC2)cc1-c1cccc2ccccc12 (as salt: hydrochloric acid salt) [Example E18],281.8,–,–,–,–
–,CN1CCN(c2cc(-c3ccccc3)c(C(F)(F)F)nn2)CC1 (as salt: hydrochloric acid salt) [Example E22],163.3,–,–,–,–
–,COc1ccccc1-c1cc(N2CCNCC2)nnc1C(F)(F)F (as salt: hydrochloric acid salt) [Example E31],287.7,–,–,–,–
–,CN(C)c1ccc(-c2cc(N3CCNCC3)nnc2C(F)(F)F)cc1 (as salt: hydrochloric acid salt) [Example E32],198.7,–,–,–,–
–,FC(F)(F)c1nnc(N2CCNCC2)cc1-c1cc(Cl)ccc1Cl (as salt: hydrochloric acid salt) [Example E34],286.3,–,–,–,–
–,"FC(F)(F)c1nnc(N2CCN3CCCC3C2)cc1-c1ccccc1 (racemic) (as salt: hydrochloric acid salt) [Example E5, 2-(5-Phenyl-6-trifluoromethyl-pyridazin-3-yl)-octahydro-pyrrolo[1,2-a]pyrazine]",104.2,–,–,–,–
–,CC1CN(c2cc(-c3ccccc3)c(C(F)(F)F)nn2)C(C)CN1 (racemic) (as salt: hydrochloric acid salt) [Example E26],273,–,–,–,–
–,CC1CN(c2cc(-c3ccccc3)c(C(F)(F)F)nn2)C(C)CN1 (racemic) [Example E26],–,> 10,2.29,6.03,–
>5,"Fc1cc(F)cc(CN2CCN(c3cc(-c4ccccc4)c(C(F)(F)F)nn3)CC2)c1 [Example E3, 6-[4-(3,5-Difluorobenzyl)piperazin-1-yl]-4-phenyl-3-trifluoromethyl-pyridazine]",138.8,> 10,–,0.617,–
–,"C[C@@H]1CN(c2cc(-c3ccccc3)c(C(F)(F)F)nn2)C[C@H](C)N1 [Example E4, cis-6-(3,5-Dimethylpiperazin-1-yl)-4-phenyl-3-trifluoromethyl-pyridazine]",–,> 10,8.51,3.8,–
–,Cc1ccc(-c2cc(N3CCNCC3)nnc2C(F)(F)F)cc1 [Example E11],110.6,0.0891,0.741,1.26,–
–,FC(F)(F)c1nnc(N2CCNCC2)cc1-c1ccc(Cl)cc1 [Example E12],198.2,0.347,1.74,3.63,–
–,Oc1cccc(-c2cc(N3CCNCC3)nnc2C(F)(F)F)c1 [Example E13],–,> 10,3.55,5.13,–
–,FC(F)(F)c1nnc(N2CCNCC2)cc1-c1ccc(Br)cc1 [Example E14],138.2,> 10,4.27,4.07,–
–,Fc1cccc(-c2cc(N3CCNCC3)nnc2C(F)(F)F)c1 [Example E15],144.7,0.631,1.55,5.75,–
–,FC(F)(F)c1nnc(N2CCNCC2)cc1-c1cccc(Cl)c1 [Example E16],178.8,0.55,0.245,4.79,–
–,FC(F)(F)c1nnc(N2CCNCC2)cc1-c1ccc2ccccc2c1 [Example E17],128.1,0.398,0.437,7.94,–

5-HT6 binding pIC50 [2],Structure (SMILES),melting point [°C],"IC50 [1, 4] [µM]",IC50 [2] [µM],IC50 [3] [µM],IC50 [1] [µM]
–,FC(F)(F)c1nnc(N2CCNCC2)cc1-c1cccc2ccccc12 [Example E18],–,> 10,0.158,7.76,–
–,FC(F)(F)c1nnc(N2CCNCC2)cc1-c1cccs1 [Example E19],112.6,0.148,1.95,1.38,–
–,Clc1nnc(N2CCNCC2)cc1-c1ccccc1 [Example E20],173.9,0.151,4.37,1.41,–
>5,Fc1ccc(CN2CCN(c3cc(-c4ccccc4)c(C(F)(F)F)nn3)CC2)cc1F [Example E21],185.1,1.48,–,2,–
–,CN1CCN(c2cc(-c3ccccc3)c(C(F)(F)F)nn2)CC1 [Example E22],–,0.0389,1.26,0.776,–
–,FC(F)(F)c1nnc(N2CCN(C3CC3)CC2)cc1-c1ccccc1 [Example E23],152,0.275,> 10,1.86,–
–,CCCN1CCN(c2cc(-c3ccccc3)c(C(F)(F)F)nn2)CC1 [Example E24],129.8,> 10,5.37,0.0676,–
–,CCCCN1CCN(c2cc(-c3ccccc3)c(C(F)(F)F)nn2)CC1 [Example E25],102.9,0.00263,2.69,0.0692,–
–,"FC(F)(F)c1nnc(N2CCNCC2)cc1-c1ccc(Cl)s1 [Example E27, 4-(5-Chloro-thiophen-2-yl)-6-piperazin-1-yl-3-trifluoromethyl-pyridazine]",–,> 10,0.794,1.51,–
–,Cc1cc(F)ccc1-c1cc(N2CCNCC2)nnc1C(F)(F)F [Example E28],–,0.0479,0.245,0.372,–
–,Cc1cscc1-c1cc(N2CCNCC2)nnc1C(F)(F)F [Example E29],101,> 10,0.537,3.55,–
–,COc1ccccc1-c1cc(N2CCNCC2)nnc1C(F)(F)F [Example E31],–,0.479,1.12,> 10,–
–,CN(C)c1ccc(-c2cc(N3CCNCC3)nnc2C(F)(F)F)cc1 [Example E32],–,1.29,0.977,> 10,–
–,Fc1ccccc1-c1cc(N2CCNCC2)nnc1C(F)(F)F [Example E33],–,–,1.29,1.23,0.0525
–,FC(F)(F)c1nnc(N2CCNCC2)cc1-c1cc(Cl)ccc1Cl [Example E34],–,0.0871,0.794,4.68,–
–,FC(F)(F)c1nnc(N2CCN(Cc3ccccc3)CC2)cc1-c1ccccc1 [Example E36],–,> 10,6.61,0.0331,–
–,FC(F)(F)c1nnc(N2CCN(Cc3cccnc3)CC2)cc1-c1ccccc1 [Example E37],–,0.178,> 10,0.562,–
–,FC(F)(F)c1nnc(N2CCN(Cc3ccccn3)CC2)cc1-c1ccccc1 [Example E38],–,0.0871,> 10,0.282,–
–,FC(F)(F)c1nnc(N2CCN(CC3CC3)CC2)cc1-c1ccccc1 [Example E39],–,> 10,3.89,0.0603,–
